Reference: the supplement of paper PMC10307832

Columns and labels:
Experiment in all cases: relative viability (nuclei count vs DMSO), 5 days (fraction); higher = more cells survive
Dovitinib = compound: CN1CCN(c2ccc3nc(-c4c(N)c5c(F)cccc5[nH]c4=O)[nH]c3c2)CC1 [Dovitinib]
How it was run: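 After an overnight hold at 37 °C, lung cancer cell lines in 1536-well plates were pinned with five library-drug doses (not always all listed), each √10 from the next, on vehicle-anchored plates. The cells stayed 5 days without fresh medium, then a one-step fix, permeabilisation and Hoechst stain preceded 4× imaging and MetaXpress nuclear counts. A plate passed only with control CV under 25% and at least one doubling. Viability is the median, over plates, of treated-well nuclei relative to vehicle-well nuclei.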

Dovitinib + Tozasertib = compound: CN1CCN(c2ccc3nc(-c4c(N)c5c(F)cccc5[nH]c4=O)[nH]c3c2)CC1 [Dovitinib] + Cc1cc(Nc2cc(N3CCN(C)CC3)nc(Sc3ccc(NC(=O)C4CC4)cc3)n2)n[nH]1 [Tozasertib] (partner 0.1 µM)
How it was run: (§1)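 After 5 days of treatment, lung cancer cells in 1536-well plates were fixed and stained in a single step (final 0.05% Triton X-100, 1% formaldehyde, 1 ug/ml Hoechst) and their nuclei counted on 4× images. Treatment had been applied by pin tool the day after seeding as one drug alone or as a fixed anchor-drug dose with five library-drug doses (not always all listed) in √10 steps. Relative viability is the nuclei count of treated wells divided by that of vehicle wells, and values are medians of duplicate plates.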

Dovitinib + Navitoclax = compound: CN1CCN(c2ccc3nc(-c4c(N)c5c(F)cccc5[nH]c4=O)[nH]c3c2)CC1 [Dovitinib] + CC1(C)CCC(c2ccc(Cl)cc2)=C(CN2CCN(c3ccc(C(=O)NS(=O)(=O)c4ccc(N[C@H](CCN5CCOCC5)CSc5ccccc5)c(S(=O)(=O)C(F)(F)F)c4)cc3)CC2)C1 [Navitoclax] (partner 0.5 µM)
How it was run: as §1

Dovitinib + Phenformin = compound: CN1CCN(c2ccc3nc(-c4c(N)c5c(F)cccc5[nH]c4=O)[nH]c3c2)CC1 [Dovitinib] + N=C(N)NC(=N)NCCc1ccccc1 [Phenformin] (partner 250 µM)
How it was run: as §1

Cell Line	relative viability (Dovitinib; 0.02 µM)	relative viability (Dovitinib; 0.06325 µM)	relative viability (Dovitinib; 0.2 µM)	relative viability (Dovitinib; 0.6325 µM)	relative viability (Dovitinib; 2 µM)	relative viability (Dovitinib + Tozasertib; first compound 0.02 µM)	relative viability (Dovitinib + Tozasertib; first compound 0.06325 µM)	relative viability (Dovitinib + Tozasertib; first compound 0.2 µM)	relative viability (Dovitinib + Tozasertib; first compound 0.6325 µM)	relative viability (Dovitinib + Tozasertib; first compound 2 µM)	relative viability (Dovitinib + Navitoclax; first compound 0.02 µM)	relative viability (Dovitinib + Navitoclax; first compound 0.06325 µM)	relative viability (Dovitinib + Navitoclax; first compound 0.6325 µM)	relative viability (Dovitinib + Navitoclax; first compound 2 µM)	relative viability (Dovitinib + Phenformin; first compound 0.02 µM)	relative viability (Dovitinib + Phenformin; first compound 0.06325 µM)	relative viability (Dovitinib + Phenformin; first compound 0.2 µM)	relative viability (Dovitinib + Phenformin; first compound 0.6325 µM)	relative viability (Dovitinib + Phenformin; first compound 2 µM)	relative viability (Dovitinib + Navitoclax; first compound 0.2 µM)
201T	0.895	0.954	0.991	1.02	0.989	0.917	0.967	0.975	0.946	0.873	1.12	1.21	1.22	1.21	0.449	0.42	0.463	0.409	0.459	–
A549	0.964	1.04	1.06	0.991	0.966	–	–	–	–	–	1.21	1.11	1.19	1.14	0.145	0.174	0.284	0.113	0.201	1.24
A-427	0.918	0.901	1.06	1.06	1.05	0.222	0.201	0.203	0.162	0.225	0.91	0.933	0.902	0.822	0.363	0.3	0.307	0.282	0.347	0.942
ABC-1	0.847	0.953	1.08	1.1	0.924	0.175	0.208	0.201	0.208	0.192	–	–	–	–	0.211	0.317	0.243	0.237	0.204	–
BEN	0.987	0.959	1.14	1.12	0.964	0.512	0.526	0.591	0.635	0.419	0.0734	0.0569	0.0923	0.0738	0.248	0.288	0.281	0.296	0.305	0.0676
CAL-12T	1.07	1.02	1.02	0.99	1.1	0.28	0.3	0.341	0.262	0.285	1.24	1.12	1.17	1.42	0.585	0.624	0.556	0.616	0.664	1.43
Calu-6	0.977	1.01	0.999	0.981	0.959	–	–	–	–	–	0.828	0.784	0.813	0.782	–	–	–	–	–	0.828
EBC-1	1.08	0.997	1.06	0.975	1.06	–	–	–	–	–	0.475	0.38	0.384	0.55	–	–	–	–	–	0.421
IA-LM	0.864	1.02	0.962	0.989	0.873	–	–	–	–	–	0.778	0.961	0.704	0.76	–	–	–	–	–	0.814
LCLC-103H	0.975	0.931	1.03	1.06	0.992	0.539	0.414	0.477	0.415	0.53	–	–	–	–	0.357	0.331	0.336	0.345	0.305	–
NCI-H358	0.9	0.995	0.918	0.989	0.907	0.104	0.101	0.115	0.11	0.106	–	–	–	–	0.291	0.357	0.408	0.317	0.319	–
NCI-H522	1	1.09	1.22	1.03	0.924	0.549	0.583	0.536	0.54	0.665	–	–	–	–	0.637	0.686	0.583	0.625	0.769	–
NCI-H650	0.97	0.883	1	0.927	1.03	0.713	0.689	0.725	0.824	0.854	–	–	–	–	0.442	0.417	0.446	0.461	0.504	–
NCI-H661	0.988	0.993	1.04	1.03	1.06	0.347	0.355	0.36	0.361	0.38	–	–	–	–	0.267	0.328	0.304	0.268	0.308	–
NCI-H1299	0.966	1.03	1.03	0.98	1.03	–	–	–	–	–	1.01	1.04	1.05	1.08	–	–	–	–	–	1.09
NCI-H1563	1.01	1.07	0.97	1.05	1.08	–	–	–	–	–	–	–	–	–	0.591	0.669	0.665	0.656	0.664	–
NCI-H1648	0.914	0.805	1.12	0.908	0.789	0.491	0.532	0.562	0.402	0.564	–	–	–	–	–	–	–	–	–	–
NCI-H1703	1.01	1.08	0.882	0.637	0.541	–	–	–	–	–	1.18	1.41	0.775	0.33	–	–	–	–	–	0.84
NCI-H1792	0.898	0.818	0.894	1.04	0.907	–	–	–	–	–	0.671	0.637	0.751	0.588	0.384	0.264	0.482	0.357	0.322	0.62
NCI-H2342	1.12	0.992	1.1	1.04	1.01	0.602	0.631	0.488	0.488	0.504	–	–	–	–	0.709	0.561	0.618	0.657	0.701	–
